Results: patent US20110183978A1, “Phenylpyri(mi)dinylazoles” (Bayer CropScience AG, priority 2009, published 2011)
Where two headings read alike, the source gives them in different places.

Columns and labels:
Fusarium proliferatum = assay: Example I: production of fumonisin FB1 by Fusarium proliferatum (microtitre plates); format: cell-based; conditions: 120 h
Fusarium graminearum = assay: microbe, parasite or virus in culture; format: cell-based
Sphaerotheca fuliginea [1] = assay: Example L: in vivo test on Sphaerotheca fuliginea (powdery mildew on cucumber/protective); conditions: Podosphaera fuliginea, 168 h, cucumber, protective, assessment 7 days after inoculation, read-out: % Wirkungsgrad
Method in brief: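 Young cucumber plants sprayed at stated dosage with compound in DMF/alkylaryl polyglycol ether emulsifier diluted in water; inoculated with S. fuliginea spores one day later. Kept in greenhouse at 70% relative humidity, 23° C; protective activity assessed 7 days after inoculation.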

Venturia inaequalis = assay: Example O: in vivo test on Venturia inaequalis (apple scab/protective); conditions: 240 h, protective, assessment 10 days after inoculation, read-out: % Wirkungsgrad
Method in brief: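 Protective test: active substance mixed with solvent and alkylaryl polyglycol ether emulsifier, diluted with water, and sprayed on young plants at the stated dosage before Venturia inaequalis inoculation. Scab assessed 10 days after inoculation.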

Botrytis cinerea [2] = assay: Example P: in vivo test on Botrytis cinerea (gray mould on bean/protective); conditions: 48 h, bean, protective, 250 ppm active substance, assessed 2 days after inoculation, read-out: % Wirkungsgrad (activity level)
Method in brief: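 Protective test: young bean plants sprayed with the active substance preparation (emulsifier-based concentrate diluted in water) at the stated dosage. Once dry, each leaf received 2 agar pieces bearing Botrytis cinerea. Infection blotch size assessed 2 days after inoculation.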

Pyricularia oryzae = assay: whole plant or invertebrate; format: in vivo; conditions: 120 h, read-out: % Activity level
Rhizoctonia solani = assay: Example W: in vivo test on Rhizoctonia solani (sheath blight in rice/protective); conditions: 96 h, rice, protective, 250 ppm active substance, assessed 4 days after inoculation, read-out: % Activity level
Experimental: Solvent: 28.5 parts by weight acetone Emulsifier: 1.5 parts by weight alkylaryl polyglycol ethers For the preparation of a suitable active substance preparation, 1 part by weight of active substance is mixed with the stated quantities of solvent and emulsifier and the concentrate is diluted to the desired concentration with water. For the testing for protective activity, young rice plants are sprayed with the active substance preparation at the stated application dosage. One day after the treatment, the plants are inoculated with hyphae of Rhizoctonia solani. […] 4 days after the inoculation, the assessment takes place.

Cochliobolus miyabeanus = assay: Example X: in vivo test on Cochliobolus miyabeanus (brown spot disease, rice/protective); conditions: Bipolaris oryzae, 96 h, read-out: % Activity level
Peronospora parasitica = assay: Example A: in vivo test on Peronospora parasitica (downy mildew on white cabbage); conditions: Hyaloperonospora parasitica, 120 h, cabbage plants sprayed 24 hours before inoculation, scored after 5 days, read-out: % Wirkungsgrad
Method in brief: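 Cabbage plants (Eminence) at cotyledon stage sprayed with aqueous compound suspension (acetone/Tween/DMSO, diluted with water), then inoculated 24 h later with P. parasitica spores at 50,000 spores/ml. After 5 days in moist atmosphere at ca. 20 °C, disease scored against untreated sprayed controls.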

Botrytis cinerea [3] = assay: Example B: in vivo test on Botrytis cinerea (grey mould on cucumbers); conditions: cucumber plants sprayed 24 hours before inoculation, scored after 5-7 days, read-out: % Wirkungsgrad
Experimental: In Vivo Test on Botrytis Cinerea (Grey Mould on Cucumbers) An aqueous suspension of the active substance was prepared by homogenization of a mixture of acetone/Tween/dimethyl sulphoxide and subsequent dilution with water to the desired concentration. Cucumber plants (variety: Vert petit de Paris) are sown in cultivation dishes on a peat-pozzolanic earth substrate (50/50) at 18-20° C. and sprayed at the cotyledon stage Z11 with the aqueous suspension described above. As a control, plants are sprayed with an aqueous solution with no active substance. […] The spores are derived from a 15 day-old culture which are suspended in the following nutrient solution: • 20 g/l gelatine • 50 g/l D-fructose • 2 g/l NH4NO3 • 1 g/l KH2PO4 The inoculated cucumber plants are kept for 5-7 days in a climatic chamber at […] After 5-7 days they are scored in comparison with the control plants.

Sphaerotheca fuliginea [4] = assay: Example D: in vivo test on Sphaerotheca fuliginea (powdery mildew on cucumber); conditions: Podosphaera fuliginea, 288 h, cucumber plants sprayed 24 hours before inoculation, scored after 12 days, read-out: % Wirkungsgrad
Method in brief: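 Cucumber plants at cotyledon stage Z10 were sprayed with the compound suspended in acetone/Tween/DMSO diluted with water. After 24 hours they were inoculated with Sphaerotheca fuliginea spores (100,000/ml) and incubated at ca. 20/25° C. and 60/70% RH. Disease was scored after 12 days against untreated sprayed controls.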

Puccinia recondita = assay: Example F: in vivo test on Puccinia recondita (wheat brown rust); conditions: 240 h, wheat plants sprayed 24 hours before inoculation, scored after 10 days, read-out: % Wirkungsgrad
Experimental: In Vivo Test on Puccinia Recondita (Wheat Brown Rust) An aqueous suspension of the active substance was prepared by homogenization of a mixture of acetone/Tween/dimethyl sulphoxide and subsequent dilution with water to the desired concentration. Wheat plants (variety: Scipion) are sown in cultivation dishes on a peat-pozzolanic earth substrate (50/50) at 12° C. and sprayed at the first-leaf stage (10 cm size) with the aqueous suspension described above. As a control, plants are sprayed with an aqueous solution with no active substance. After 24 hours the plants are inoculated by spraying with an aqueous suspension of Puccinia recondita spores (100,000 spores per ml). The spores are derived from a 10 day-old infected wheat crop and are suspended in water with 2.5 ml/l Tween. […] After 10 days they are scored in comparison with the control plants.

[5] = test system: Mycosphaerella graminicola; assay: Example G: in vivo test on Mycosphaerella graminicola (wheat leaf blotch disease); conditions: Zymoseptoria tritici, wheat plants sprayed 24 hours before inoculation, scored after 21 to 28 days, read-out: % Wirkungsgrad
Method in brief: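 Scipion wheat at first-leaf stage (10 cm) was sprayed with aqueous active-substance suspension, then inoculated 24 hours later with Mycosphaerella graminicola spores (500,000 spores per ml) from 7 day-old culture. Disease was scored after 21 to 28 days against untreated sprayed controls.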

Alternaria solani = assay: Example M: in vivo test on Alternaria solani (leaf blotch disease/tomato/protective); conditions: 168 h, tomato, protective, 500 ppm active substance, assessed 7 days after inoculation, read-out: % Wirkungsgrad (activity level)
Method in brief: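 Protective test: young tomato plants sprayed with active substance (in DMF with alkylaryl polyglycol ether emulsifier, diluted in water) at the stated dosage, then inoculated with Alternaria solani. Disease assessed 7 days after inoculation.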

Aspergillus parasiticus = assay: microbe, parasite or virus in culture; format: cell-based; conditions: 168 h
Plasmopara viticola = assay: Example N: in vivo test on Plasmopara viticola (downy mildew, vine/protective); conditions: 144 h, vine, protective, assessment 6 days after inoculation, read-out: % Wirkungsgrad
Method in brief: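 Protective test: young vine plants were sprayed with active substance diluted in water from a solvent/alkylaryl polyglycol ether emulsifier concentrate at the stated dosage, then inoculated with P. viticola. Plants were moistened and kept 1 day in an incubation cabin, and assessed 6 days after inoculation.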

Alternaria brassicae = assay: Example C: in vivo test on Alternaria brassicae (leaf spot disease on radishes); conditions: 500 ppm; radish plants sprayed 24 hours before inoculation; scored after 6-7 days
Experimental: In Vivo Test on Alternaria Brassicae (Leaf Spot Disease on Radishes) An aqueous suspension of the active substance was prepared by homogenization of a mixture of acetone/Tween/dimethyl sulphoxide and subsequent dilution with water to the desired concentration. Radish plants (variety: Pernot) are sown in cultivation dishes on a peat-pozzolanic earth substrate (50/50) at 18-20° C. and sprayed at the cotyledon stage with the aqueous suspension described above. As a control, plants are sprayed with an aqueous solution with no active substance. After 24 hours, the plants are inoculated by spraying with an aqueous suspension of Alternaria brassicae spores (40,000 spores per ml). The spores are derived from a 12 to 13 day-old culture. The inoculated radish plants are incubated for 6-7 days at ca. 18° C. in a humid atmosphere. After 6-7 days they are scored in comparison with the control plants.

[6] = Fusarium proliferatum growth, OD 620, 5 days, read-out: % Inhibition des Pilzwachstums bei 50 μM
[7] = Fusarium proliferatum, 5 days at 20° C., HPLC-MS/MS, read-out: % Inhibition der FB1 produktion bei 50 μM
[8] = 72 h, read-out: % Inhibition des Pilzwachstums bei 50 μM
[9] = 168 h, read-out: % Inhibition der DON/AcDON produktion bei 50 μM
[10] = LogPA (logP of the stated pure compound or, in a mixture, of the main isomer, 1-substituted 3-aryl-1H-pyrazole)

CC(=O)Nc1ccc(-c2c(-c3ccncc3)cnn2C2CCCCO2)cc1 (stereo not drawn) [[X-13]]
LogP (pH 2.3): 0.97

Cc1cc(F)ccc1-c1c(-c2ccncc2)cnn1C1CCCCO1 (stereo not drawn) [[X-5], 4-[5-(4-fluoro-2-methylphenyl)-1-(tetrahydro-2H-pyran-2-yl)-1H-pyrazol-4-yl]pyrid]
LogP (pH 2.3): 1.40

O=C(Nc1cc(-c2cn(CCCl)nc2-c2ccc(F)cc2)ccn1)C1CC1 [Compound 221]
inhibition at 50 µM (Fusarium proliferatum; [6]): 99% | inhibition at 50 µM (Fusarium proliferatum; [7]): 100% | inhibition at 50 µM (Fusarium graminearum; [8]): 100% | inhibition at 50 µM (Fusarium graminearum; [9]): 100% | pest or weed control at 500 ppm (Sphaerotheca fuliginea [1]): 100% | pest or weed control at 100 ppm (Venturia inaequalis): 91% | pest or weed control at 250 ppm (Botrytis cinerea [2]): 100% | pest or weed control at 250 ppm (Pyricularia oryzae): 92% | pest or weed control at 250 ppm (Rhizoctonia solani): 100% | pest or weed control at 250 ppm (Cochliobolus miyabeanus): 80% | chromatographic logP (physchem; LogPA): 2.1

C#CCn1nc(-c2ccc(F)cc2)c(-c2ccncc2)c1C [Compound 171]
pest or weed control at 500 ppm (Peronospora parasitica): 91% | pest or weed control at 500 ppm (Botrytis cinerea [3]): 71% | pest or weed control at 500 ppm (Sphaerotheca fuliginea [4]): 100% | pest or weed control at 500 ppm (Puccinia recondita): 94% | pest or weed control at 500 ppm [5]: 93% | pest or weed control at 500 ppm (Sphaerotheca fuliginea [1]): 100% | pest or weed control at 500 ppm (Alternaria solani): 95% | pest or weed control at 250 ppm (Botrytis cinerea [2]): 84% | chromatographic logP (physchem; LogPA): 2.51

N-Benzyl-4-[3-(4-fluorophenyl)-1-isopropyl-1H-pyrazol-4-yl]pyrimidin-2-amine [[I-f-1]]
logP (pH 2.7) (pH 2.7): 3.31

CC(C)n1cc(-c2ccnc3ccccc23)c(-c2ccc(F)cc2)n1 [Compound 44]
pest or weed control at 500 ppm (Peronospora parasitica): 78% | pest or weed control at 500 ppm (Botrytis cinerea [3]): 71% | pest or weed control at 500 ppm (Sphaerotheca fuliginea [4]): 98% | pest or weed control at 500 ppm (Puccinia recondita): 71% | pest or weed control at 500 ppm [5]: 81% | inhibition at 50 µM (Fusarium proliferatum; [6]): 33% | inhibition at 50 µM (Fusarium proliferatum; [7]): 100% | chromatographic logP (physchem; [10]): 2.24

COCC(=O)Nc1cc(-c2cn(C(C)C)nc2-c2ccc(F)cc2)ccn1 [Compound 40]
pest or weed control at 500 ppm (Peronospora parasitica): 98% | pest or weed control at 500 ppm (Botrytis cinerea [3]): 100% | pest or weed control at 500 ppm (Sphaerotheca fuliginea [4]): 100% | pest or weed control at 500 ppm (Puccinia recondita): 86% | pest or weed control at 500 ppm [5]: 81% | inhibition at 50 µM (Fusarium proliferatum; [6]): 98% | inhibition at 50 µM (Fusarium proliferatum; [7]): 100% | inhibition at 50 µM (Fusarium graminearum; [8]): 100% | inhibition at 50 µM (Fusarium graminearum; [9]): 100% | inhibition at 50 µM (Aspergillus parasiticus; 50 μM, 7 days at 20° C., read-out: Inhibition der Aflatoxin produktion bei 50 μM): 99% | inhibition at 50 µM (Aspergillus parasiticus; read-out: % Inhibition des Pilzwachstums bei 50 μM): 88% | pest or weed control at 100 ppm (Plasmopara viticola): 72% | pest or weed control at 100 ppm (Venturia inaequalis): 97% | pest or weed control at 250 ppm (Botrytis cinerea [2]): 100% | pest or weed control at 250 ppm (Pyricularia oryzae): 95% | pest or weed control at 250 ppm (Cochliobolus miyabeanus): 85% | chromatographic logP (physchem; [10]): 2.59

NC(=O)c1cc(-c2cn(C3CCCCO3)nc2-c2ccc(F)cc2)ccn1 (stereo not drawn) [Compound 93]
pest or weed control at 500 ppm (Puccinia recondita): 83% | chromatographic logP (physchem; [10]): 2.46

Fc1ccc(-c2nn(CC3CC3)cc2-c2ccncc2)cc1 [Compound 126]
pest or weed control at 500 ppm (Peronospora parasitica): 89% | pest or weed control at 500 ppm (Sphaerotheca fuliginea [4]): 85% | pest or weed control at 500 ppm (Puccinia recondita): 75% | pest or weed control at 500 ppm (Sphaerotheca fuliginea [1]): 95% | pest or weed control at 500 ppm (Alternaria solani): 95% | pest or weed control at 100 ppm (Plasmopara viticola): 81% | pest or weed control at 100 ppm (Venturia inaequalis): 98% | pest or weed control at 250 ppm (Botrytis cinerea [2]): 100% | chromatographic logP (physchem; [10]): 1.33

CC(C)n1ncc(-c2ccncc2)c1-c1c(F)cccc1F [Compound 10]
pest or weed control at 500 ppm (Peronospora parasitica): 85% | pest or weed control at 500 ppm (Botrytis cinerea [3]): 73% | % Activity level (Alternaria brassicae): 85% | pest or weed control at 500 ppm (Sphaerotheca fuliginea [4]): 80% | pest or weed control at 500 ppm [5]: 95% | chromatographic logP (physchem; [10]): 1.54

CC(C)Cn1ncc(-c2ccncc2)c1-c1c(F)cccc1F [Compound 2]
pest or weed control at 500 ppm (Peronospora parasitica): 85% | pest or weed control at 500 ppm (Botrytis cinerea [3]): 74% | % Activity level (Alternaria brassicae): 77% | pest or weed control at 500 ppm (Sphaerotheca fuliginea [4]): 93% | pest or weed control at 500 ppm [5]: 98% | pest or weed control at 500 ppm (Alternaria solani): 100% | chromatographic logP (physchem; [10]): 1.86

Cc1cc(-c2c(-c3ccncc3)cnn2C2CCCCO2)ccc1F (stereo not drawn) [[X-7], 4-[5-(4-fluoro-3-methylphenyl)-1-(tetrahydro-2H-pyran-2-yl)-1H-pyrazol-4-yl]pyrid]
LogP (pH 2.3): 1.47

CCC(C)n1cc(-c2ccncc2)c(-c2c(F)cccc2F)n1 (stereo not drawn) [Compound 3]
pest or weed control at 500 ppm (Peronospora parasitica): 97% | % Activity level (Alternaria brassicae): 88% | pest or weed control at 500 ppm (Sphaerotheca fuliginea [4]): 93% | pest or weed control at 500 ppm [5]: 95% | chromatographic logP (physchem; [10]): 1.82

Mixture of 4-bromo-3-(4-fluorophenyl)-1-isopropyl-1H-pyrazole and 4-bromo-5-(4-fluoro-phenyl)-1-isopropyl-1H-pyrazole [[VI-1]]
logP (pH 2.7) (pH 2.7): 3.96 | logP (pH 2.7), minor isomer (pH 2.7): 3.68

4-[3-(4-fluorophenyl)-1-isobutyl-1H-pyrazol-4-yl]-N-isopropylpyrimidin-2-amine [[I-h-1]]
logP (pH 2.7) (pH 2.7): 1.81
